Several values for one entry are separate records, joined by “and”; a condition that tells them apart may be missing. Equal values may be shown once. Read-outs that look alike come from different tables or passages of the source.
Key:
[1] = tested on: phosphorylated BRD4 and c-MYC; experiment: Western blot of p-BRD4, BRD4 and c-MYC in solid tumor cell lines; assay type: cell-based, human; conditions: 24 h
Protocol: Fig. 2 NHWD-870 inhibited BRD4 phosphorylation and c-MYC expression, and suppressed cell growth. a Representative western blot analysis of p-BRD4 (s484/488), BRD4, c-MYC, and GAPDH after treatment of MDA-MB231, SUM159, A2780 ES-2, and H526 cells with JQ-1 or NHWD-870 at the indicated concentrations for 24 h. GAPDH served as the loading control. Selected from three independent experiments. b MTT assays of H526, A2780, ES-2, and MDA-MB231 cells treated with JQ-1 or NHWD-870 at the indicated concentrations for 5 days. Data are presented as mean ± SEM from three independent experiments. c, d Clonogenic assays of H526, A2780, ES-2 and MDA-MB231 cells treated with 250 nM JQ-1 or NHWD-870 for 5 days. Shown are representative images (c) and quantification of colonies (d). […] Shown are representative images (e) and quantification of relative colony sizes (f). Scale bar, 50 μm. Data are presented as mean ± SEM from five independent experiments. p values were calculated using two-tailed, unpaired t tests in this figure. **p < 0.01; ***p < 0.001. Source data are provided as a Source Data file. […]
4. Protein extraction and w estern blot anal ysis. Freshly dissected unfixed tissue was homogenized in lysis buffer. The lysates were centrifuged at 13,000g for 10 minutes at 4°C. Supernatants were collected and determined with a Bradford Protein Assay kit (Bio-Rad, Hercules, CA). The cell lysates were subjected to SDS-PAGE followed by immunoblotting (Immobilon P; Millipore, Milford, MA) with specific antibodies followed by detection using an enhanced chemilumine scence kit (Amersham Life Science, Arlington Heights, IL). […]

[2] = In vivo pharmacokinetics study, mouse
Protocol: 4–6 weeks old female BALB/c nude mice were used for most experiments, with the exception of 6–8 weeks old female C57BL/6 mice were used for B16F10 experiments, and 6–8 weeks old male BALB/c nude mice and SD rats were used for pharmacokinetic experiments. All animals were purchased from Shanghai SIPPR-Bk Lab Animal Co., Ltd. All animals were housed under a regimen of 12 h light/12 h dark cycles and specific pathogen-free conditions. 5×10^6 NCI-H526, ES-2, MDA-MB231, A2780, A375, B16F10, and TMD-8 cells (0.1 ml) were injected subcutaneously into female nude mice. The melanoma patient-derived xenograft model was derived from a human melanoma sample (BRAF, NARS and NF1 wild type, and p53 mutant) removed from a patient in Xiangya Hospital. Surgically removed tumor fragments were implanted subcutaneously into female NSG mice. When the tumors grew to ~1000 mm^3, they were harvested and cryopreserved or immediately re-implanted for expansion or experiments. Mouse body weight and tumor sizes were measured every 3 days. Once the tumors grew to 150–200 mm^3, mice were treated with the compounds as described in the Figures. 1 × 10^6 A2780 cells (1 ml) were injected into the abdominal cavity of nude mice. Ascitic volume and tumor weight were measured by an electronic balance. All the procedures were evaluated and approved by the Institutional Animal Care and Use Committee of Central South University and Yale University.
Supplementary Figure 7. Pharmacokinetic profile of NHWD-870 using mouse and rat models.
(a,b) Plasma concentrations of NHWD-870 in healthy (a) mouse and (b) rat after intravenous (IV, 1.75 mg/kg for mouse and 1 mg/kg for rat) and oral (PO, 5 mg/kg) administration. Values shown on the right panels are mean ± SEM from 3 different animals. (c,d) Mean concentrations of NHWD-870 in the lungs (c) and tumors (d) of H526 xenograft model at the indicated hours after oral administration of 3 mg/kg NHWD-870 and BMS-98615821 on day 21. These mice were administrated the indicated drug daily for 21 days. Data are represented as mean ± SEM of 3 independent experiments. Source data are provided as a Source Data file. […]
9. In vivo pharmacokinetics study. Mouse and SD rat models were used to evaluate pharmacokinetic property of NHWD-870. NHWD-870 was administrated […]
Concentration of drugs in plasma, lung and tumor tissues were measured for the indicated time. […]

[3] = male, BALB/c nude, plasma, IV 1.75 mg/kg
[4] = male, BALB/c nude, plasma, PO 5 mg/kg

## Cc1nnn(C)c1-c1cnc2c3c4cnn(C)c4ccc3n([C@H](c3ccccc3)C3CCOCC3)c2c1 [NHWD-870]
[1]; 10 nM
  effect on phosphorylated BRD4 and c-MYC (western blot): depletion of phosphorylated BRD4 and c-MYC
[1]
  effect on the stability of BRD4 (western blot): minimal effects on the stability of BRD4
[2]; IV 1.75 mg/kg
  AUCExtrap: 3.87±2.125%
[2]; IV 1.75 mg/kg, 1.75 mg/kg
  T1/2: 1.7 h
[2]; IV 1.75 mg/kg, 5 min, individual mice, 1.75 mg/kg
  Plasma concentration: 547 ng/mL and 518 ng/mL
[2]; IV 1.75 mg/kg, 0.25 h, individual mice, 1.75 mg/kg
  Plasma concentration: 431 ng/mL and 362 ng/mL
[2]; IV 1.75 mg/kg, 0.5 h, individual mice, 1.75 mg/kg
  Plasma concentration: 399 ng/mL and 272 ng/mL
[2]; IV 1.75 mg/kg, 1 h, individual mice, 1.75 mg/kg
  Plasma concentration: 295 ng/mL and 262 ng/mL
[2]; IV 1.75 mg/kg, 2 h, individual mice, 1.75 mg/kg
  Plasma concentration: 281 ng/mL and 264 ng/mL
[2]; IV 1.75 mg/kg, 4 h, individual mice, 1.75 mg/kg
  Plasma concentration: 215 ng/mL and 197 ng/mL
[2]; IV 1.75 mg/kg, 8 h, individual mice, 1.75 mg/kg
  Plasma concentration: 41.2 ng/mL and 70.8 ng/mL
[2]; IV 1.75 mg/kg, 24 h, individual mice, 1.75 mg/kg
  Plasma concentration: 0.876 ng/mL and 1.36 ng/mL
[2]; PO 5 mg/kg
  AUCExtrap: 3.04±0.685%
[2]; PO 5 mg/kg, 5 mg/kg
  F (%), oral bioavailability: 70%
[2]; PO 5 mg/kg, 0.25 h, individual mice, 5 mg/kg
  Plasma concentration: 515 ng/mL and 150 ng/mL and 133 ng/mL
[2]; PO 5 mg/kg, 0.5 h, individual mice, 5 mg/kg
  Plasma concentration: 630 ng/mL and 247 ng/mL and 269 ng/mL
[2]; PO 5 mg/kg, 1 h, individual mice, 5 mg/kg
  Plasma concentration: 688 ng/mL and 321 ng/mL and 337 ng/mL
[2]; PO 5 mg/kg, 2 h, individual mice, 5 mg/kg
  Plasma concentration: 593 ng/mL and 414 ng/mL
[2]; PO 5 mg/kg, 4 h, individual mice, 5 mg/kg
  Plasma concentration: 308 ng/mL and 354 ng/mL
[2]; PO 5 mg/kg, 6 h, individual mice, 5 mg/kg
  Plasma concentration: 62.6 ng/mL and 255 ng/mL and 189 ng/mL
[2]; PO 5 mg/kg, 8 h, individual mice, 5 mg/kg
  Plasma concentration: 37.2 ng/mL and 209 ng/mL and 111 ng/mL
[2]; PO 5 mg/kg, 24 h, individual mice, 5 mg/kg
  Plasma concentration: 0.953 ng/mL
[2]; [3]
  AUC(0-inf): 993 ± 280 ng·h/mL
  AUC(0-t): 939 ± 242 ng·h/mL
  C0: 630 ± 70.5 ng/mL
  MRT inf: 2.22 ± 0.42 h
  clearance: 35 ± 7.45 mL/min/kg
[2]; male, BALB/c nude, plasma, IV 1.75 mg/kg, read-out: Vdss
  Vd: 4.17 ± 0.42 L/kg
[2]; [4]
  AUC(0-inf): 2010 ± 165 ng·h/mL
  AUC(0-t): 1950 ± 172 ng·h/mL
  Cmax: 467 ± 74 ng/mL
  MRT inf: 3.16 ± 0.24 h
  Tmax: 1.33 ± 0.29 h
[2]; male, BALB/c nude, plasma, PO 5 mg/kg, 24 h, individual mice, read-out: Plasma concentration
  concentration at 24 h: 1.94 ng/mL
[2]; male, BALB/c nude, plasma, iv, 1.75 mg/kg, IV 1.75 mg/kg
  half-life: 1.73 ± 0.325 h
[2]; male, BALB/c nude, plasma, iv, 1.75 mg/kg, IV 1.75 mg/kg, 5 min, individual mice, read-out: Plasma concentration
  concentration at 5 min: 614 ng/mL
[2]; male, BALB/c nude, plasma, iv, 1.75 mg/kg, IV 1.75 mg/kg, 5 min, mean of 3 mice, read-out: Plasma concentration, Mean
  concentration at 5 min: 560 ng/mL
[2]; male, BALB/c nude, plasma, iv, 1.75 mg/kg, IV 1.75 mg/kg, 0.25 h, individual mice, read-out: Plasma concentration
  concentration at 0.25 h: 491 ng/mL
[2]; male, BALB/c nude, plasma, iv, 1.75 mg/kg, IV 1.75 mg/kg, 0.25 h, mean of 3 mice, read-out: Plasma concentration, Mean
  concentration at 0.25 h: 428 ng/mL
[2]; male, BALB/c nude, plasma, iv, 1.75 mg/kg, IV 1.75 mg/kg, 0.5 h, individual mice, read-out: Plasma concentration
  concentration at 0.5 h: 388 ng/mL
[2]; male, BALB/c nude, plasma, iv, 1.75 mg/kg, IV 1.75 mg/kg, 0.5 h, mean of 3 mice, read-out: Plasma concentration, Mean
  concentration at 0.5 h: 353 ng/mL
[2]; male, BALB/c nude, plasma, iv, 1.75 mg/kg, IV 1.75 mg/kg, 1 h, individual mice, read-out: Plasma concentration
  concentration at 1 h: 417 ng/mL
[2]; male, BALB/c nude, plasma, iv, 1.75 mg/kg, IV 1.75 mg/kg, 1 h, mean of 3 mice, read-out: Plasma concentration, Mean
  concentration at 1 h: 325 ng/mL
[2]; male, BALB/c nude, plasma, iv, 1.75 mg/kg, IV 1.75 mg/kg, 2 h, individual mice, read-out: Plasma concentration
  concentration at 2 h: 362 ng/mL
[2]; male, BALB/c nude, plasma, iv, 1.75 mg/kg, IV 1.75 mg/kg, 2 h, mean of 3 mice, read-out: Plasma concentration, Mean
  concentration at 2 h: 302 ng/mL
[2]; male, BALB/c nude, plasma, iv, 1.75 mg/kg, IV 1.75 mg/kg, 4 h, individual mice, read-out: Plasma concentration
  concentration at 4 h: 190 ng/mL
[2]; male, BALB/c nude, plasma, iv, 1.75 mg/kg, IV 1.75 mg/kg, 4 h, mean of 3 mice, read-out: Plasma concentration, Mean
  concentration at 4 h: 201 ng/mL
[2]; male, BALB/c nude, plasma, iv, 1.75 mg/kg, IV 1.75 mg/kg, 8 h, individual mice, read-out: Plasma concentration
  concentration at 8 h: 50.2 ng/mL
[2]; male, BALB/c nude, plasma, iv, 1.75 mg/kg, IV 1.75 mg/kg, 8 h, mean of 3 mice, read-out: Plasma concentration, Mean
  concentration at 8 h: 54.1 ng/mL
[2]; male, BALB/c nude, plasma, iv, 1.75 mg/kg, IV 1.75 mg/kg, 24 h, individual mice, read-out: Plasma concentration
  concentration at 24 h: 0.937 ng/mL
[2]; male, BALB/c nude, plasma, iv, 1.75 mg/kg, IV 1.75 mg/kg, 24 h, mean of 3 mice, read-out: Plasma concentration, Mean
  concentration at 24 h: 1.06 ng/mL
[2]; male, BALB/c nude, plasma, po, 5 mg/kg, PO 5 mg/kg
  half-life: 1.29 ± 0.055 h
[2]; male, BALB/c nude, plasma, po, 5 mg/kg, PO 5 mg/kg, 0.25 h, mean of 3 mice, read-out: Plasma concentration, Mean
  concentration at 0.25 h: 266 ng/mL
[2]; male, BALB/c nude, plasma, po, 5 mg/kg, PO 5 mg/kg, 0.5 h, mean of 3 mice, read-out: Plasma concentration, Mean
  concentration at 0.5 h: 382 ng/mL
[2]; male, BALB/c nude, plasma, po, 5 mg/kg, PO 5 mg/kg, 1 h, mean of 3 mice, read-out: Plasma concentration, Mean
  concentration at 1 h: 449 ng/mL
[2]; male, BALB/c nude, plasma, po, 5 mg/kg, PO 5 mg/kg, 2 h, individual mice, read-out: Plasma concentration
  concentration at 2 h: 528 ng/mL
[2]; male, BALB/c nude, plasma, po, 5 mg/kg, PO 5 mg/kg, 2 h, mean of 3 mice, read-out: Plasma concentration, Mean
  concentration at 2 h: 512 ng/mL
[2]; male, BALB/c nude, plasma, po, 5 mg/kg, PO 5 mg/kg, 4 h, individual mice, read-out: Plasma concentration
  concentration at 4 h: 299 ng/mL
[2]; male, BALB/c nude, plasma, po, 5 mg/kg, PO 5 mg/kg, 4 h, mean of 3 mice, read-out: Plasma concentration, Mean
  concentration at 4 h: 320 ng/mL
[2]; male, BALB/c nude, plasma, po, 5 mg/kg, PO 5 mg/kg, 6 h, mean of 3 mice
  concentration at 6 h: 169 ng/mL
[2]; male, BALB/c nude, plasma, po, 5 mg/kg, PO 5 mg/kg, 8 h, mean of 3 mice, read-out: Plasma concentration, Mean
  concentration at 8 h: 119 ng/mL
[2]; male, BALB/c nude, plasma, po, 5 mg/kg, PO 5 mg/kg, 24 h, individual mice, read-out: Plasma concentration
  concentration at 24 h: 1.06 ng/mL
[2]; male, BALB/c nude, plasma, po, 5 mg/kg, PO 5 mg/kg, 24 h, mean of 3 mice, read-out: Plasma concentration, Mean
  concentration at 24 h: 1.32 ng/mL
[2]; male, BALB/c nude, plasma, po, 5 mg/kg, PO 5 mg/kg, read-out: F (%), oral bioavailability
  bioavailability: 70.8 ± 5.8%
